Measurements from ChEMBL document CHEMBL4477264, “Amino acid amides of piperic acid (PA) and 4-ethylpiperic acid (EPA) as NorA efflux pump inhibitors of Staphylococcus aureus” (2016).
Calls of active or inactive are those of the source. No cut-off for these calls is given here.

Experiments:
[1] = target: T1, Quinolone resistance protein NorA (Staphylococcus aureus) (UniProt P0A0J7); test: Inhibition of NorA efflux pump overexpressed in Staphylococcus aureus 1199B assessed as fold reduction in ciprofloxacin MIC at 12.5 ug/ml measured after 24 hrs by broth checkerboard method
T1 sequence (whole entry): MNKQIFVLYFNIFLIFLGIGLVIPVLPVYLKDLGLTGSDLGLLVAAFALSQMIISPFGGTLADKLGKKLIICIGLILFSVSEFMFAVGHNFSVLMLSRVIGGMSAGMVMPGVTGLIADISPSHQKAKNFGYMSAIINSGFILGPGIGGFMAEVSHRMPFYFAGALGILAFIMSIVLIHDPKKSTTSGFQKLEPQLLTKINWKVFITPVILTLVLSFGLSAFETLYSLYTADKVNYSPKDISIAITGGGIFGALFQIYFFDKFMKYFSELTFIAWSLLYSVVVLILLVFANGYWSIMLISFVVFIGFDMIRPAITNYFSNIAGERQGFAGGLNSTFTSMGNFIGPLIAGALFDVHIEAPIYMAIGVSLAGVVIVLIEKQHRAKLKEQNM

[2] = target: T1, Quinolone resistance protein NorA (Staphylococcus aureus); test: Inhibition of NorA efflux pump overexpressed in Staphylococcus aureus 1199B assessed as concentration required for four-fold reduction in ciprofloxacin MIC measured after 24 hrs by broth checkerboard method relative to control
Staphylococcus aureus [3] = test: Antibacterial activity against Staphylococcus aureus 1199B overexpressing NorA efflux pump measured after 24 hrs by broth checkerboard method; assay type: functional
Staphylococcus aureus [4] = test: Antibacterial activity against Staphylococcus aureus 1199B overexpressing NorA efflux pump measured at every 3 mins interval for 30 mins by fluorescence analysis; assay type: functional
[5] = target: T1, Quinolone resistance protein NorA (Staphylococcus aureus); test: Inhibition of NorA efflux pump overexpressed in Staphylococcus aureus 1199B assessed as concentration required for four-fold reduction in ethidium bromide MIC measured at every 3 mins interval for 30 mins by fluorescence analysis
Staphylococcus aureus [6] = test: Antibacterial activity against wild-type Staphylococcus aureus 1199 expressing NorA efflux pump measured at every 3 mins interval for 30 mins by fluorescence analysis; assay type: functional
[7] = target: T1, Quinolone resistance protein NorA (Staphylococcus aureus); test: Inhibition of NorA efflux pump in Staphylococcus aureus 1199 assessed as concentration required for four-fold reduction in ethidium bromide MIC measured at every 3 mins interval for 30 mins by fluorescence analysis
[8] = target: T1, Quinolone resistance protein NorA (Staphylococcus aureus); test: Inhibition of NorA efflux pump overexpressed in Staphylococcus aureus 1199B assessed as fold reduction in ethidium bromide MIC at 12.5 ug/ml measured at every 3 mins interval for 30 mins by fluorescence analysis
[9] = target: T1, Quinolone resistance protein NorA (Staphylococcus aureus); test: Inhibition of NorA efflux pump in Staphylococcus aureus 1199 assessed as fold reduction in ethidium bromide MIC at […] measured at every 3 mins interval for 30 mins by fluorescence analysis; conditions: 12.5 ug/ml
[10] = target: T1, Quinolone resistance protein NorA (Staphylococcus aureus); test: Inhibition of NorA efflux pump overexpressed in Staphylococcus aureus 1199B assessed as reduction in EtBr efflux measured over 30 mins by fluorescence analysis
[11] = target: T1, Quinolone resistance protein NorA (Staphylococcus aureus); test: Potency index, ratio of SK-20 MEC to compound MEC for Staphylococcus aureus 1199B overexpressing NorA efflux pump assessed as concentration required for four-fold reduction in ciprofloxacin MIC
[12] = target: T1, Quinolone resistance protein NorA (Staphylococcus aureus); test: Inhibition of NorA efflux pump overexpressed in Staphylococcus aureus 1199B assessed as increase in EtBr accumulation at 50 ug/ml measured after 30 mins by fluorescence analysis

Compound	fold change (FC) [1]	MEC [2] [µg/mL]	MIC (Staphylococcus aureus [3]) [µg/mL]	MIC (Staphylococcus aureus [4]) [µg/mL]	MEC [5] [µg/mL]	MIC (Staphylococcus aureus [6]) [µg/mL]	MEC [7] [µg/mL]	fold change (FC) [8]	fold change (FC) [9]	inhibition [10]	Ratio [11]	inhibition [12]
CCC(/C=C/C(=O)O)=C\c1ccc2c(c1)OCO2	0	> 50	> 50	–	–	–	–	–	–	–	–	–
CCC(/C=C/C(=O)N[C@H](C(=O)OC)C(C)C)=C\c1ccc2c(c1)OCO2	0	> 50	> 50	–	–	–	–	–	–	–	–	–
COC(=O)CC1(NC(=O)/C=C/C=C/c2ccc3c(c2)OCO3)CCC(C(C)(C)C)CC1 (stereo unspecified)	0	> 50	> 50	–	–	–	–	–	–	–	–	–
COC(=O)[C@@H](NC(=O)/C=C/C=C/c1ccc2c(c1)OCO2)C(C)(C)C	4	12.5	> 50	> 50	50	> 50	50	2	0	–	–	–
CCC(/C=C/C(=O)N1CCCCC1)=C\c1ccc2c(c1)OCO2	4	12.5	> 50	> 50	12.5	> 50	25	4	0	–	–	–
CCC(/C=C/C(=O)NCC1(CC(=O)OC)CCCCC1)=C\c1ccc2c(c1)OCO2	2	25	> 50	–	–	–	–	–	–	–	–	–
COC(=O)CC1(NC(=O)/C=C/C=C/c2ccc3c(c2)OCO3)CCCCC1	0	> 50	> 50	–	–	–	–	–	–	–	–	–
CCC(/C=C/C(=O)NC1(CC(=O)OC)CCC(CC)CC1)=C\c1ccc2c(c1)OCO2 (stereo unspecified)	0	> 50	> 50	–	–	–	–	–	–	–	–	–
COC(=O)CC1(CNC(=O)/C=C/C=C/c2ccc3c(c2)OCO3)CCCCC1	4	12.5	> 50	> 50	50	> 50	25	2	0	–	–	–
CCC(/C=C/C(=O)N1CCC[C@@H]1C(=O)OC)=C\c1ccc2c(c1)OCO2	16	3.12	> 50	> 50	3.12	> 50	25	4	2	Dose-dependent effect	4	Active
CCC(/C=C/C(=O)N[C@@H](Cc1c[nH]c2ccccc12)C(=O)OC)=C\c1ccc2c(c1)OCO2	–	–	–	–	–	> 50	–	–	–	–	–	–
CCC1CCC(CC(=O)OC)(NC(=O)/C=C/C=C/c2ccc3c(c2)OCO3)CC1 (stereo unspecified)	0	50	> 50	–	–	–	–	–	–	–	–	–
O=C(O)/C=C/C=C/c1ccc2c(c1)OCO2 [PIPERIC ACID]	0	> 50	> 50	–	–	–	–	–	–	–	–	–
CCC(/C=C/C(=O)N[C@@H](Cc1ccccc1)C(=O)OC)=C\c1ccc2c(c1)OCO2	2	25	> 50	> 50	6.25	> 50	> 50	4	2	–	–	–
CCCCC(=O)NC1(CC(=O)NNc2ccccc2)CCN(C(=O)/C=C/C(=C/c2ccc3c(c2)OCO3)CC)CC1	4	6.25	> 50	> 50	3.12	> 50	12.5	8	4	Dose-dependent effect	–	Active
CCC(/C=C/C(=O)N[C@H](C(=O)OC)C(C)(C)C)=C\c1ccc2c(c1)OCO2	4	12.5	> 50	> 50	25	> 50	> 50	2	2	–	–	–
CCC(/C=C/C(=O)NC1(CC(=O)OC)CCCCC1)=C\c1ccc2c(c1)OCO2	2	50	> 50	–	–	–	–	–	–	–	–	–
O=C(/C=C/C=C/c1ccc2c(c1)OCO2)N1CCCCC1 [PIPERINE]	0	> 50	> 50	> 50	–	> 50	> 50	2	0	–	–	–
CCC(/C=C/C(=O)N[C@@H](CC(C)C)C(=O)OC)=C\c1ccc2c(c1)OCO2	0	> 50	> 50	–	–	–	–	–	–	–	–	–
CCC(/C=C/C(=O)N1CCC(CC(=O)NC(C)(C)C(=O)OC)(NC(C)=O)CC1)=C\c1ccc2c(c1)OCO2	2	25	> 50	–	–	–	–	–	–	–	–	–
CCC(/C=C/C(=O)N[C@@H](C)C(=O)OC)=C\c1ccc2c(c1)OCO2	0	> 50	> 50	–	–	–	–	–	–	–	–	–
CCC(/C=C/C(=O)NC1(CC(=O)OC)CCC(C(C)(C)C)CC1)=C\c1ccc2c(c1)OCO2 (stereo unspecified)	0	> 50	> 50	–	–	–	–	–	–	–	–	–
